Source: patent publication US20220227815A1, “COMPOSITIONS AND METHODS USEFUL IN TREATING BRAIN DISEASES” (University of Kansas, priority 2019, published 2022)
“And” between values parts separate entries of the source, which are not always exact repeats. Identical values can stand only once. “Also recorded” adds a separate entry of the source. Non-standard residues stand in square brackets, D forms with d. Residues, ends and D or L forms follow the SMILES beside them. ξ: configuration not given here. Thr(3ξ) = CC(O)[C@H](N)C(=O)O

Tests used:
[1] = tested on: blood-brain barrier (BBB); assay: In vivo brain delivery of IRdye800CW-IgG mAb, NIRF quantification in brain homogenates; settings: C57BL/6 mice; for average amount of IgG mAb in the brain: IRdye800CW-IgG mAb 21.6 nmol/kg i.v. alone or with 13 μmol/kg peptide, 15 min circulation, n=3; for brain delivery of IgG mAb compared to control (IgG mAb alone): IgG mAb 21.6 nmol/kg + 13 μmol/kg peptide i.v.
Description: (§1) The activity of each peptide in enhancing blood-brain barrier (BBB) penetration was evaluated by delivering IRdye800CW donkey anti-goat IgG mAb in C57BL/6 mice; the amounts of mAb in the brain were determined using NIRF imaging. Each group contained 3 mice per group (n=3) with a mixture of male and female mice, selected randomly for each arm of the study. The injection solution was prepared by adding 600 μL PBS into 0.5 mg lyophilized IgG mAb; then, approximately 1.5 mg lyophilized peptide was added into the mixture yielding the injectable formulation. A 100 μL solution of a mixture containing IgG mAb (21.6 nmol/kg) along with 13 μmol/kg peptide of the present technology was administered via tail vein. As a control, 100 μL of IgG mAb alone was administered via i.v. route. After the delivered molecules had been circulating for 15 min, the mice were sacrificed; then, a mixture of PBS with 0.5% Tween20 was administered for cardiac perfusion to remove the blood and […] molecules into the brain microvessels. The brain and other organs such as lung, heart, spleen, liver, and kidney were harvested and rinsed with PBS. The isolated organs were scanned with Odyssey® CLx for mAb quantification.
The brain deposition of IgG mAb was also quantified by NIRF imaging in brain homogenates. The isolated brains were mechanically homogenized in 2.0 mL of PBS. To make the standard solutions, IRDye800CW IgG mAb stock solution (70 μg/mL) was prepared; it was then diluted with various amounts of PBS to make six different mAb concentrations. To generate a calibration curve, the brain homogenate (200 μL) was aliquoted out to a 96-well plate. 10 μL of each concentration of IgG mAb was added to three different wells of blank brain homogenates. The standard spiked homogenates were at a range of 10-200 ng/mL IgG mAb in brain homogenate. The wells were scanned using the Odyssey® CLx scanner, and the signal intensities vs. concentrations of mAb per gram of brain were used to generate a calibration curve.
(§2) The BBB modulatory activities of ADTC5 and HAV6 to enhance brain delivery of IRdyeR800CW-labeled lysozyme, albumin, IgG mAb, and fibronectin were compared in C57BL/6 mice. The proteins with or without 13 μmol/kg HAV6 or ADTC5 were administered via tail vein injection. For lysozyme, the delivered doses were 21.6 and 54 nmol/kg. For albumin, IgG mAb, and fibronectin, the dose used was 21.6 nmol/kg. Fifteen minutes after IgG mAb administration with or without a peptide of the present technology, the animals were sacrificed and PBS with 0.5% Tween-20 was administered for cardiac perfusion to remove the remaining protein in the BBB microvessels. The brain and other organs such as lung, heart, spleen, liver and kidney were harvested and rinsed with PBS. Protein depositions in the brain and other organs were quantified by NIRF imaging using an Odyssey CLx NIRF scanner.
(§3) A second quantification method was done using brain homogenates. In this case, the brains were homogenized in 2.0 mL PBS by mechanical disruption and 200 μL of homogenized brain (n=8) was aliquoted to a 96-well plate followed by quantification using the Odyssey CLx scanner. The signal intensity was compared to calibration curve and normalized to brain weight and homogenate volume.

[2] = Peripheral organ deposition of IRdye800CW-labeled proteins by NIRF imaging; format: in vivo, C57BL/6 mice; settings: for IgG mAb deposition in other organs (liver, kidney, heart, spleen, lungs) compared to control: IgG mAb 21.6 nmol/kg + 13 μmol/kg peptide i.v., NIRF signal intensity, n=3
Description: as §1, §2

[3] = tested on: blood-brain barrier (BBB); assay: In vivo brain delivery of IRdye800CW-albumin (65 kDa); settings: IRdye800CW-albumin 21.6 nmol/kg i.v. alone or with 13 μmol/kg peptide, C57BL/6 mice
Description: as §2, §3
(§4) Brain Perfusion. After euthanasia using CO2 chamber, mice were immediately subjected to cervical dislocation followed by removal of IRdye800CW-labeled protein from the brain capillaries using perfusion solution. In this case, a solution containing PBS with 0.2% Tween-20 was transcardially perfused to remove the remaining protein molecules in the brain endothelial microvessels. After perfusion, the brain was removed from the skull and subjected to capillary depletion.

[4] = tested on: blood-brain barrier (BBB); assay: In vivo brain delivery of IRdye800CW-lysozyme (15 kDa); set-up: species or system C57BL/6 mice; settings: for amount of lysozyme in the brain: IRdye800CW-lysozyme 54 nmol/kg i.v. alone or with 13 μmol/kg peptide, C57BL/6 mice
Description: Preparation of Stock and Standard Curves. The stock solution for IRDye800CW protein (i.e., lysozyme, 70 μg/mL) was prepared and stored at −80° C. The stock solution was later diluted with PBS to make the required standard solutions. To produce a standard calibration curve, 200 μL of blank brain homogenates was spiked with 10 μL standard solutions of various concentrations to yield a linear range from 0.5 to 50 ng/mL. The same method was employed for the sample's quality control (QC).
as §2, §3, §4

[5] = tested on: blood-brain barrier (BBB); assay: In vivo brain delivery of IRdye800CW-fibronectin (220 kDa); set-up: species or system C57BL/6 mice; settings: IRdye800CW-fibronectin 21.6 nmol/kg i.v. alone or with ADTC5 13 μmol/kg
Description: as §2, §3, §4

[6] = albumin 21.6 nmol/kg with 13 μmol/kg peptide, NIRF

Molecule | average amount of IgG mAb in the brain [1] | brain delivery of IgG mAb compared to control (IgG mAb alone) [1] | IgG mAb deposition in other organs (liver, kidney, heart, spleen, lungs) compared to control [2] | also measured
CC(C)[C@@H]1NC(=O)[C@H](C)NC(=O)[C@H](Cc2c[nH]cn2)NC(=O)[C@H](CO)NC(=O)[C@H](C(C)C)NC(=O)[C@@H]2CCCN2C(=O)[C@@H]2CCCN2C(=O)[C@H](C(C)O)NC1=O (stereo partly drawn) (cyclo(AV[Thr(3ξ)]PPVSH)) | 15.7±0.8 pmol/g brain | significantly better than in the PBS control; also recorded: significant difference | significant increases in deposition of IgG mAb in liver, kidney, spleen, and lungs; also recorded: significant differences in the IgG mAb signal in lung, kidney, spleen, and liver | 
CC(=O)N[C@@H](CO)C(=O)N[C@@H](Cc1c[nH]cn1)C(=O)N[C@@H](C)C(=O)N[C@H](C(=O)N[C@@H](CO)C(=O)N[C@@H](CO)C(N)=O)C(C)C [HAV6, acetyl-SHAVSS-NH2] (Ac-SHAVSS-NH2) | 3.4±0.4 pmol/g brain and 3.42±0.5 pmol/g brain and 3.4 ± 0.5 pmol/g brain | did not enhance; also recorded: not able to deliver mAb | no significant difference | amount of albumin in the brain [3]: 15.5±3.1 pmol/g brain; amount of lysozyme in the brain [4]: 8.3±2.5 pmol/g brain; brain delivery of lysozyme compared to lysozyme alone ([4]; lysozyme 21.6 nmol/kg with 13 μmol/kg peptide): no significant improvement; distribution of mAb into liver ([2]; IgG mAb 21.6 nmol/kg with 13 μmol/kg peptide, compared to control): about the same; deposition of albumin in the spleen compared to control [2, 6]: enhanced; distribution of albumin into the liver compared to control [2, 6]: significantly enhanced; lysozyme deposition in the kidney ([2]; lysozyme 54 nmol/kg with 13 μmol/kg peptide, NIRF): followed by the HAV6-treated group
CC(C)[C@@H]1NC(=O)[C@H](C)NC(=O)[C@H](Cc2c[nH]cn2)NC(=O)[C@H](CO)NC(=O)[C@H](CO)NC(=O)[C@H](CO)NC1=O [HAVN1, cyclo(1,6)SHAVSS] (cyclo(AVSSSH)) | 8.6±0.5 pmol/g brain | significantly enhanced; also recorded: significant difference | no significant difference | 
CC(C)[C@@H]1NC(=O)[C@H](C)NC(=O)[C@H](Cc2c[nH]cn2)NC(=O)[C@H](CO)NC(=O)[C@H](CO)NC1=O [HAVN2, cyclo(1,5)SHAVS] (cyclo(AVSSH)) | 8.8±0.6 pmol/g brain | significantly enhanced; also recorded: significant difference | no significant difference | 
CC(=O)N[C@H](C(=O)N1CCC[C@H]1C(=O)N1CCC[C@H]1C(=O)N[C@H](C(=O)N[C@@H](CO)C(=O)N[C@@H](Cc1c[nH]cn1)C(=O)N[C@@H](C)C(=O)N[C@H](C(N)=O)C(C)C)C(C)C)C(C)O (stereo partly drawn) [linear ADTHAV] | 11.8±0.5 pmol/g brain | significantly better than in the PBS control; also recorded: significant difference | significant effects on the distribution of IgG mAb in the heart and kidney; also recorded: significance differences in the IgG mAb signal intensities for kidney and heart | 
Albumin [reference compound] |  |  |  | amount of albumin in the brain [3]: 11.8 ± 1.0 pmol/g brain; amount of albumin in the brain ([3]; listed as albumin): 11.8±1.0 pmol/g brain
Lysozyme [reference compound] |  |  |  | amount of lysozyme in the brain [4]: 0 ± 0 pmol/g brain; amount of lysozyme in the brain ([4]; listed as lysozyme): below the detection limits
fibronectin [reference compound] |  |  |  | NIRF signal of fibronectin in brain homogenates [5]: 33.026±2.080 ×10^3 A.U.
